Holding throughout (assay type): biochemical
One assay deals with FL-Tip60 (1-512 aa) (Homo sapiens, UniProt Q92993). Put plainly: Radiometric filter binding HAT assay, full-length Tip60.
Assay [1] concerns the target PCAF HAT domain (493-658) (Homo sapiens, UniProt Q92831). Put plainly: Radiometric HAT assay, PCAF HAT domain.
The target in another assay is CAT-Tip60 (221-512 aa) (Homo sapiens, UniProt Q92993). Put plainly: Radiometric filter binding HAT assay, Tip60 catalytic domain.
Sequence of CAT-Tip60 (221-512 aa) (Q92993 221-512): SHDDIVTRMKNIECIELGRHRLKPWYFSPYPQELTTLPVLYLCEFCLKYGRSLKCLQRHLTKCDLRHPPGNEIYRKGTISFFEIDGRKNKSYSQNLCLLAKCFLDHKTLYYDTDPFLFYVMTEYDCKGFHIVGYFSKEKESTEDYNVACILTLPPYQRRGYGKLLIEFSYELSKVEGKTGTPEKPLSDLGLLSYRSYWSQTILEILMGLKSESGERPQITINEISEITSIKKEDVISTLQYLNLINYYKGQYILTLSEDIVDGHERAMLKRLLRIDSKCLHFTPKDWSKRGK

Sequence of FL-Tip60 (1-512 aa) (Q92993 1-512): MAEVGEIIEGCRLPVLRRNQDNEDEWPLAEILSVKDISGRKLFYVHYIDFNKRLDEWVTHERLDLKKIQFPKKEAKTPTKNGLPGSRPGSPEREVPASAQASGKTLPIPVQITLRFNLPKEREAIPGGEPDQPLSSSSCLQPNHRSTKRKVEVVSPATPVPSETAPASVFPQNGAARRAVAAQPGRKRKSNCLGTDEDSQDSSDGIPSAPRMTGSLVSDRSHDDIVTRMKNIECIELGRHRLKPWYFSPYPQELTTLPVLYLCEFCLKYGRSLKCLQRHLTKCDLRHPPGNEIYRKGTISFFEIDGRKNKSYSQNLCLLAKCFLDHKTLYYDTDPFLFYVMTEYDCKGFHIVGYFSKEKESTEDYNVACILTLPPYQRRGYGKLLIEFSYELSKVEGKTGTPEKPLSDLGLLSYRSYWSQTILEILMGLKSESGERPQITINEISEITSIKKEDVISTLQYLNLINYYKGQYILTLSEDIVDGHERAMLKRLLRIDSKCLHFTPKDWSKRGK
Sequence of PCAF HAT domain (493-658) (Q92831 493-658): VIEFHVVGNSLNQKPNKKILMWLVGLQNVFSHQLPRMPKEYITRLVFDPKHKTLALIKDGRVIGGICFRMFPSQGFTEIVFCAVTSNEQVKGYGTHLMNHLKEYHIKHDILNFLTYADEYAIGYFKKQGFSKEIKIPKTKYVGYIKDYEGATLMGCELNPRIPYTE

For the compound `CC(C)(COP(=O)(O)OP(=O)(O)OC[C@H]1O[C@@H](n2cnc3c(N)ncnc32)[C@H](O)[C@@H]1OP(=O)(O)O)[C@@H](O)C(=O)NCCC(=O)NCCS` [CoASH], the half-inhibitory concentration (IC50) (as a rule, the concentration that gives 50% inhibition) on FL-Tip60 (1-512 aa) amounted to 9.1 ± 1 µM; in assay [1], 8.4 ± 0.4 µM; at CAT-Tip60 (221-512 aa), 16 ± 3.1 µM.

For the origin of these results see article PMC4150253 (ChemMedChem, 2014).
